Data as given in paper PMC2375353, “Effective treatment of experimental U-87MG human glioblastoma in nude mice with a targeted cytotoxic bombesin analogue, AN-215” (British Journal of Cancer, 2002).
Values joined by “and” are separate entries in the source; they are usually repeats but may differ in a detail not shown here. Identical values can stand only once.

Key:
[1] = system: U-87MG human glioblastoma xenografted into nude mice; assay: Experiment 1: growth of s.c. U-87MG xenografts in nude mice; format: in vivo, human tumour in male athymic nude mice; conditions: for Final tumour volume / Final tumour volume, % inhibition / Tumour weight, % inhibition / Tumour doubling time: 150 nmol kg^-1 i.v. days 1, 8, 15, 22; for Final tumour volume / Final tumour volume, % inhibition / Tumour weight, % inhibition: day 29; for Final tumour volume / Tumour doubling time: mean±s.e.; for Final tumour volume: control 3201.5±375.7; for Final tumour volume, % inhibition / Tumour weight, % inhibition: vs control; for Antitumour effect / Tumour doubling time: experiment 1; for Antitumour effect: 150 nmol kg^-1 i.v.; for Tumour doubling time: day 1 to 29, control 4.5±0.2
Procedure: Human glioblastoma cell line U-87MG was obtained from American Type Culture Collection (Manassas, VA, USA) and cultured as described ([Pinski et al, 1994]). Male athymic (Ncr nu/nu) nude mice, approximately 6-weeks-old on arrival, were obtained from the National Cancer Institute (Frederick Cancer Research and Development Center, Frederick, MD, USA), and housed in laminar air-flow cabinets under pathogen-free conditions with a 12 h light/12 h dark schedule, and fed autoclaved standard chow and water ad libitum. Xenografts were initiated by s.c. injection of 12×10^6 U-87MG cells into the right flanks of five male nude mice. Tumours resulting after 2 weeks were aseptically dissected, mechanically minced, and 3-mm^3 pieces of tumour tissue were transplanted s.c. with a trocar needle. The take rate was 100%. All experiments were performed in accordance with institutional ethical guidelines of animal care and were essentially in agreement with [UKCCCR guidelines (1998)] for the welfare of animals in experimental neoplasia.
Experiment 1 was started when tumours had grown to approximately 40 mm^3 in volume. Animals were randomly divided into three treatment groups: group 1(10 mice), control, which received vehicle solution; group 2 (10 mice), injected with cytotoxic radical AN-201; group 3 (11 mice), given cytotoxic BN analogue AN-215. Cytotoxic compounds were injected through the jugular vein at a dose of 150 nmol kg^−1 of body weight (BW) on days 1, 8, 15 and 22. Tumour volume (length×width×height×0.5236) and BW were measured twice a week. The experiment was terminated on day 29. […] Tumours were excised and weighed. Tumour specimens were snap-frozen and stored at −70°C until extraction of RNA for reverse transcription-polymerase chain reaction (RT–PCR). Tumour volume doubling time was calculated between day 1 and 29 using the formula: […]
as described by [Smolev et al (1977)].
Data are expressed as mean±s.e. Differences between mean values were evaluated by two-tailed Student's t-test, P<0.05 being considered significant.

[2] = system: BN receptor-positive organs; assay: GRP-stimulated serum gastrin release; format: in vivo, nude mice; conditions: for Effect on GRP-stimulated gastrin release: experiment 1, after i.v. stimulation with GRP(14-27); for GRP(14-27)-evoked serum gastrin level: experiment 1 end, 5 min after i.v. 2 μg GRP(14-27), radioimmunoassay, control 223.0±17.9, mean±s.e.
Procedure: General toxicity was evaluated on the basis of mortality rate and changes in BW. Toxicity to BN receptor-positive organs was assessed by measuring gastrin release in response to GRP stimulation ([Plonowski et al, 2000]). […] Serum gastrin concentrations were measured by double-antibody radioimmunoassay with a kit provided by ICN Pharmaceuticals Diagnostic Division (Orangeburg, NY, USA). The interassay variation was 10.6%, and the intraassay variation was 6%.

hGRPR/BRS-1 = assay: RT-PCR of hGRPR/BRS-1 mRNA in U-87MG tumours; format: in vivo, human; conditions: experiment 1 tumours; normalised vs hGAPDH; control 15.1±1.5; change not significant
Procedure: (§1) Total RNA was extracted from frozen tissue samples by using RNAzolB (Tel-Test, Friendswood, TX, USA) according to the manufacturer's instructions. Concentrations of total RNA were calculated by measuring the OD260 value. Total RNA (4 μg) was subjected to electrophoresis for 2 h at 70 V in 10 μl of sample buffer containing 1× MOPS buffer (pH 6.5), 6.4% formaldehyde, 48% deionized formamide, 0.25% w v^−1 bromophenol blue, 0.05% glycerol and 0.25 mg ml^−1 ethidium bromide. The RNA gel contained 1.4% agarose, 1×MOPS (pH 6.5) and 1.73% formaldehyde.
(§2) The RT–PCR was performed using Gene Amp RNA Core Kit (Perkin-Elmer, Foster City, CA, USA). To avoid genomic DNA contamination, all samples were subjected to DNase digestion before RT–PCR. RNA (2 μg) was treated with 0.3 unit of RQ1 RNase-free DNase (Promega, Madison, WI, USA) at 37°C for 30 min in 19 μl of mixture containing 5 mM MgCl2, 1× PCR buffer, 1 mM of each dNTP, 1 unit RNase inhibitor and 2.5 μM random hexamers. The reaction was terminated by enzyme denaturation at 99°C for 5 min. […]
(§3) The PCR amplification of the cDNAs for human glyceraldehyde-3-phosphate dehydrogenase (hGAPDH), GRP receptor (hGRPR, BRS-1) and neuromedin-B receptor (hNMBR, BRS-2) was performed as follows. […] The number of cycles was determined in preliminary experiments to be within the exponential range of PCR amplification.

hNMBR/BRS-2 = assay: RT-PCR of hNMBR/BRS-2 mRNA in U-87MG tumours; format: in vivo, human; conditions: experiment 1 tumours; normalised vs hGAPDH; control 7.6±3.5
Procedure: as §1, §2, §3

[3] = cited from earlier work; for BW change: accompanying WBC decrease, nude mice bearing PC-3; for Reduction in WBC count: after the final injection, nude mice bearing PC-3 human prostate cancers
Procedure: In our previous study ([Plonowski et al, 2000]) we reported that after the final injection of AN-215, AN-201 or the mixture of AN-201 and […] there was an approximate 50% reduction in WBC count in nude mice bearing PC-3 human prostate cancers. […] In the present study no measurements of WBC were carried out. Instead, the assessment of toxicity was based on changes in BW and mortality which indicated, in both experiments, that targeted cytotoxic BN analogue AN-215 is not toxic (Table 2). In experiment 1, two of 10 animals (20%) ...

Row | Molecule | Final tumour volume [1] | Final tumour volume, % inhibition [1] | Tumour weight, % inhibition [1] | Antitumour effect [1] | Tumour doubling time [1] | Effect on GRP-stimulated gastrin release [2] | GRP(14-27)-evoked serum gastrin level [2] | hGRPR/BRS-1 mRNA expression (hGRPR/BRS-1) | hNMBR/BRS-2 mRNA expression (hNMBR/BRS-2) | BW change ([3]; ref Plonowski et al, 2000) | Reduction in WBC count ([3]; ref Plonowski et al, 2000) | Damage to gastrointestinal cells ([2]; GRP-stimulated gastric secretion, this study and also ref Plonowski et al, 2000) | Tolerance with carboxylesterase inhibited ([3]; nude mice, ref Nagy et al, 2000, Plonowski et al) | Efficacy with suppressed esterase activity ([3]; nude mice, ref Plonowski et al, 2000)
1 | COc1cccc2c1C(=O)c1c(O)c3c(c(O)c1C2=O)C[C@@](O)(C(=O)CO)C[C@@H]3O[C@H]1C[C@H](N2C=CCC2)[C@H](O)[C@H](C)O1 [AN-201, 2-pyrrolino-doxorubicin] | 2353.7±506.7 mm^3 | 26% | 13.2% | ineffective | 5.9 ± 1.4 days | Neither AN-215 nor AN-201 affected GRP-stimulated gastrin release | 251.5 ± 22.1 pg/mL | 21.6±3.4 a.u. | 10.9±3.6 a.u. | transient decrease in BW | ~50% |  |  | 
2 | Gln-Trp-Ala-Val-Gly-His-Leu-ψ(CH2-NH)-Leu-NH2 [AN-215] | 971.5±227.9 mm^3 | 69.6% | 64.6% | strong tumour growth inhibition | 8.18±1.8 days and 8.2±1.8 days and 8.2±1.8^c days | Neither AN-215 nor AN-201 affected GRP-stimulated gastrin release | 257.9 ± 11.6 pg/mL | 25.4±5.1 a.u. | 3.3±1.0 a.u. | transient decrease in BW | ~50% | no specific damage to the gastrointestinal cells | significantly higher tolerance | highly efficacious
